According to paper PMC8541353, “A Novel Phenylpyrrolidine Derivative: Synthesis and Effect on Cognitive Functions in Rats with Experimental Ishemic Stroke” (Molecules, 2021):
“And” between values parts separate entries of the source, which are not always exact repeats. Equal entries are not always repeated. Where two headings read alike, the source gives them in different places.

Experiments:
rats with MCAO = experiment: Hole-board test (HBT) after MCAO; assay type: in vivo, Wistar rats
Experimental: A MCAO animal model was used to characterize the effects of compound 1 on the development and resolution of stroke. At the baseline, we performed the MRI and hole-board test before MCAO surgery. Once animals recovered after the surgery, we stratified them based on their background psycho-emotional status and performed a control MRI to access whether the occlusion was sufficient or not. […] From 24 h to day 7, the neurological status was assessed daily according to the neurological scale (mNSS). By the end of day 7, animals underwent MRI. In addition, MRI was performed on days 14 and 28 (Shceme 3)The hole-board test was repeated on days 10 and 24. The degree of motor function impairment, the deficit of exploratory behavior, and the recovery process were assessed in the beam walking test (BWT), which was performed twice on days 12 and 14. An open field test was carried out on days 16 and 26.
In the first experimental series, the following test systems were used: HBT (OpenScience, Russia), OFT (OpenScience), and LDT (OpenScience). The design for the second experimental series was as follows. All rat behavioral changes were evaluated during the four weeks after stroke simulation. […] General neurological disorders were assessed using the modified neurological severity score (mNSS). Motor and cognitive impairment were evaluated using the following functional tests: BWT (OpenScience), HBT (OpenScience), and OFT (OpenScience). […] In this test, motor dysfunction in all four limbs was evaluated; specifically, the number of steps, errors, and slides were counted. The overall score was calculated using the following formula: score = errors + 0.5 × slides × 100/total number of steps [47]. […]
The HBT was performed on postoperative days 10 and 24. In this test, the following parameters were assessed: orientational and motor activity (horizontal activity, arbitrary units: number of crossings; vertical activity, arbitrary units: number of head dips), anxiety level (immobility and grooming time and number of grooming and immobility events), and the number of central sector crossings. […]

[1] = Concentration of compound 1 in plasma, striatum and cortex by HPLC-MS (intact and MCAO rats); assay type: in vivo; conditions: for concentration at 60 min: rat
Experimental: The calculated data are consistent with the experimental data in intact animals. The concentration of compound 1 was determined in the striatum and frontal cortex by HPLC MS. Sixty minutes after the intravenous administration of compound 1, we anesthetized the rats with isoflurane. Afterward, we drained the blood from the heart, opened the chest, dissected the heart muscle, incised the left atrial appendage, and inserted an 18G needle into the right atrium. The pulmonary circulation was washed with 350 mL of 0.9% NaCl containing 1.0 mL of heparin. After the washing procedure, the rat was decapitated and the brain was removed and dissected. We determined the concentrations of compound 1 using an HPLC MS system. The concentration of compound 1 in plasma and the striatum differed by 650 times, and the concentration in plasma and the cortex differed by 630 times (Table 6).
Brain. A brain sample weighing 50 mg (± 2 mg) was placed in 2 mL tubes and 10 μL of an aqueous solution of an internal standard with a concentration of 1 μg mL^−1 was added, then 140 μL of a 1% aqueous solution of formic acid was added and homogenized. Brain samples were ground in a Precellys Evolution homogenizer using 2 mL tubes with ceramic balls at room temperature at a speed of 4500 vibrations min^−1 for 2 cycles of 90 s. After that, 400 μL of chloroform was added. The sample was shaken and centrifuged at 10,621 g for 2 min. The aqueous layer of the liquid was taken and 400 μL of chloroform was added. The sample was shaken and centrifuged at 10,621 g for 2 min. The supernatant was taken for analysis.
Plasma. A total of 10 μL of an aqueous solution of an internal standard with a concentration of 1 mg mL^−1 was added to 50 μL of plasma. A total of10 μL of formic acid and 150 μL of a 0.2% solution of formic acid in methanol was added to the solution. A total of 780 μL of deionized water was added to the resulting solution. The solution was centrifuged at 10,621 g for 2 min. The supernatant was collected and analyzed.
Analyses were performed by a Shimadzu 20 (Shimadzu, Kyoto, Japan) system consisting of HPLC coupled to triple quadrupole mass spectrometer Shimadzu 8040 (Shimadzu, Japan). The chromatographic separation was performed on Discovery C18 column 3 × 150 mm, 5 μm in a gradient mode with mobile phase components A (0.01M ammonium acetate in water) and B (acetonitrile). The gradient cycle was performed in the following way: 0–6 min 5–40% B, 6.01–10 min 40–95%, 10.01–15 min, isocratic elution with 100% B, and then returned to the initial condition. The column temperature was 60 °C. The sample injection volume was 20 μL. The autosampler temperature was 8 °C.
The electrospray ionization (ESI) source was set in positive ionization mode. Multiple reaction monitoring was used to perform mass spectrometric quantification. MS conditions: interface voltage 3,500 V ([…]), nebulizer gas (nitrogen) flow 2.5 l min^−1, drying gas (nitrogen) flow 15 L min^−1, CID gas pressure 230 kPa, DL temperature 200 °C, and heat block temperature 500 °C. High-purity argon was used as collision gas. The precursor and product ions (m/z) of target analytes were 327.10 and 174.10 for compound 1 and 236.10 and 154.15 for internal standard; collision energy was −20 V for both compounds.

[2] = cited from earlier work

| Structure (SMILES) | Orientational activity (HBT) (rats with MCAO; day 10) | Freezing time (HBT) (rats with MCAO; days 10 and 24) | Total locomotor activity (HBT) (rats with MCAO; days 10 and 24) | Increase of BBB permeability after MCAO ([1]; 24 h after MCAO vs intact animals) | Concentration in the brain ([1]; intact animals) | Cplasma/Ccortex ([1]; intact animals) | Cplasma/Cstriatum ([1]; intact animals) | concentration at 60 min ([1]; brain, intravenous, intact animals, read-out: Concentration in the brain) | concentration at 60 min ([1]; brain, intravenous, rats with hemispheric stroke (24 h after MCAO), read-out: Concentration in the brain) | concentration at 60 min ([1]; cortex, iv, intact animals, 60 min after intravenous administration, read-out: Ccortex) | concentration at 60 min ([1]; plasma, intravenous, rats 24 h after MCAO, read-out: Cplasma) | concentration at 60 min ([1]; plasma, iv, intact animals, 60 min after intravenous administration, read-out: Cplasma) | concentration at 60 min ([1]; striatum, iv, intact animals, 60 min after intravenous administration, read-out: Cstriatum) | Cplasma/Ccortex ([1]; rats 24 h after MCAO) | Cplasma/Cstriatum ([1]; rats 24 h after MCAO) | Increase of BBB permeability in animals with ischemic stroke ([2]; animals with ischemic stroke, ref 25 (Paliwal et al. 2018)) | Literature Report of BBB Permeability [2] |
| --- | --- | --- | --- | --- | --- | --- | --- | --- | --- | --- | --- | --- | --- | --- | --- | --- | --- |
| O=C(CN1CC(c2ccccc2)CC1=O)NCCS(=O)(=O)[O-].[K+] (centres unmarked) [Compound 1, potassium 2-[2-(2-oxo-4-phenylpyrrolidin-1-yl)acetamido]ethane-1-sulfonate] | escalation | decreased | significantly increased | ~10 fold | 0.3 μg g^–1 | 630 and 630.9 ± 98.6 | 650 and 651.2 ± 52.0 | 300 ng/g | 2600 ng/g | 255000 ± 78200 ng/g | 13800 ± 3600 ng/mL | 16100 ± 5800 ng/mL | 247000 ± 42600 ng/g | 37.9 ± 6.0 | 89.7 ± 9.4 | – | – |
| NC(=O)CN1CCCC1=O [Piracetam, reference compound] | – | – | – | – | – | – | – | – | – | – | – | – | – | – | – | 3.5 fold | Very good [21, 22] |
